# Assay results as given in patent US8318950B2, “N-acyl amino acid derivatives, a method for the preparation thereof, a pharmaceutical composition and use thereof as anti-allergic, anti-inflammatory and hypolipidemic agents” (Otkrytoe Aktsionernoe Obschestvo-Otechestvennye Lekarstva, priority 2005, dated 2012).
# “And” between values parts separate entries of the source, which are not always exact repeats. Identical values can stand only once.
# Test system: hypercholesterolemia in Wistar rats
# Experiment: Model of hypercholesterolemia in rats (oral cholesterol loading)
# Type: in vivo, rat
# Protocol: The study was carried out on male Wistar rats weighing 200±20 g. Hyperlipidemia was induced by oral administration of cholesterol loading, oily cholesterol suspension:
# olive oil (Acorsa, Spain)—5 ml/kg weigh of animals;
# cholesterol (Sigma, USA)—1 g/kg weight;
# sodium cholate (Sigma, USA)—100 mg/kg weight.
# As a reference preparation, the preparation from the group of statines “Mevacor” (Lovastatine) manufactured by the firm Merck Sharp & Dohn was used at dose 40 mg/kg. Cholesterol suspension was administered daily in the morning for 10 days. The compounds tested (at dose 500 μg/kg) and the reference preparation (at dose 40 mg/kg) were administered to the animals togester with cholesterol suspension for 10 days. All the animals received a standard briquetted forage.
# The animals were divided into the following groups:
# “Control”—intact animals (n=5);
# “Cholesterol”—rats that orally received cholesterol loading (n=10);
# “Lovastatine”—rats that orally received cholesterol loading and Lovastatine (n=10);
# “Compound IV”—rats that orally received cholesterol loading and the tested compound IV (n=10).
# Blood was sampled at days 5, 8 and 10 of the experiment.
# Statistical processing of the hypolipidemic action data of the tested substances was carried out with regard to the “Cholesterol” group (Table 13).
# Experimental groups included:
# 1) “Cholesterol”—rats orally administered with oily cholesterol suspension for 10 days;
# 2) “Compound IV”—rats orally administered with oily cholesterol suspension and the tested compound N;
# 3) “Compound IV—1Na”—rats orally administered with oily cholesterol suspension and the tested mono-sodium salt of compound N;
# 4) “Compound IV—2Na”—rats orally administered with oily cholesterol suspension and the tested di-sodium salt of compound N;
# 5) “Compound V—1Na”—rats orally administered with oily cholesterol suspension and the tested mono-sodium salt of the compound V;
# 6) “Compound III—1Na”—rats orally administered with oily cholesterol suspension and the tested mono-sodium salt of the compound III;
# 7) “Compound II—1Na”—rats orally administered with oily cholesterol suspension and the tested mono-sodium salt of the compound II;
# 8) “Sim”—rats orally administered with oily cholesterol suspension and Simvastatine;
# 9) control—intact rats before beginning the test.
# At day 10 of the test blood samples were taken following decapitation of the animals. The animals fasted for 12 hours prior to decapitation.
# Blood serum total cholesterol, triglycerides and high density lipoprotein cholesterol (HDLC) were measured. Low and very low density lipoprotein cholesterol was calculated by the difference between total cholesterol and HDL cholesterol.
# Blood serum total cholesterol and triglycerides were determined using the enzymatic methods.
# Cholesterol level in high density lipoproteins (α-LP) was determined using the precipitation method of LDL and VLDL with phosphotungstic acid and magnesium ions.
# Data in the tables are presented as a mean value±standard error. Significance of differences between the groups “cholesterol” and “preparation.” was assessed by the two-sampled Student's t-test.
# [1] = day 5 of the experiment (Table 15)
# [2] = day 5 of the experiment (Table 15), oral with oily cholesterol suspension
# [3] = day 8 of the experiment (Table 16)
# [4] = day 10 of the experiment (Table 17)
# [5] = day 10 of the experiment (Table 21), Monosodium Salt
# [6] = day 5 of the experiment (Table 19)
# [7] = day 5 of the experiment (Table 19, n = 12 series)
# [8] = day 8 of the experiment (Table 20)
# [9] = day 10 of the experiment (Table 21)
# [10] = rats with cholesterol loading, vs Cholesterol group
# [11] = oral 10 days with cholesterol loading, tested compound 500 μg/kg, reference 40 mg/kg (Table 13)
structure (smiles),measurement,setting,value
"O=C([O-])CCCC(=O)N[C@@H](Cc1c[nH]cn1)C(=O)O.[Na+] [Compound IV-1Na, N^α-glutaryl-L-histidine Monosodium Salt]","Total cholesterol, HDL",[1],33.1 ± 1.4 mg/100 ml
same,"Total cholesterol, LDL + VLDL",[1],38.8 ± 2.9 mg/100 ml
same,"Triglycerides, Serum",[1],106.6 ± 6.2 mg/100 ml
same,"Total cholesterol, Serum",[2],72.0 ± 3.0 mg/100 ml
same,"Total cholesterol, HDL","day 5 of the experiment (Table 19), Monosodium Salt",60.7 ± 3.1 mg/100 ml and 55.1 ± 2.8 mg/100 ml
same,"Total cholesterol, Serum","day 5 of the experiment (Table 19, n = 12 series), Monosodium Salt",94.4 ± 3.4 mg/100 ml and 96.9 ± 4.5 mg/100 ml
same,"Total cholesterol, HDL",[3],37.1 ± 1.4 mg/100 ml
same,"Total cholesterol, LDL + VLDL",[3],61.9 ± 6.6 mg/100 ml
same,"Total cholesterol, Serum",[3],99.1 ± 6.0 mg/100 ml
same,"Triglycerides, Serum",[3],146.4 ± 11.2 mg/100 ml
same,"Total cholesterol, HDL",[4],37.7 ± 1.0 mg/100 ml
same,"Total cholesterol, LDL + VLDL",[4],59.7 ± 7.2 mg/100 ml
same,"Total cholesterol, Serum",[4],97.4 ± 7.1 mg/100 ml
same,"Triglycerides, Serum",[4],132.5 ± 8.4 mg/100 ml
same,"Total cholesterol, HDL",[5],53.4 ± 2.2 mg/100 ml and 52.9 ± 3.8 mg/100 ml
same,"Total cholesterol, LDL + VLDL",[5],68.7 ± 10.1 mg/100 ml and 70.5 ± 8.9 mg/100 ml
same,"Total cholesterol, Serum",[5],122.1 ± 9.8 mg/100 ml and 123.3 ± 7.3 mg/100 ml
"O=C([O-])CCCC(=O)N[C@@H](Cc1c[nH]cn1)C(=O)[O-].[Na+].[Na+] [Compound IV” 2Na, N^α-glutaryl-L-histidine disodium salt]","Total cholesterol, HDL",[1],35.0 ± 1.3 mg/100 ml
same,"Total cholesterol, LDL + VLDL",[1],44.3 ± 2.7 mg/100 ml
same,"Triglycerides, Serum",[1],88.3 ± 4.8 mg/100 ml
same,"Total cholesterol, Serum",[2],80.6 ± 2.8 mg/100 ml
same,"Total cholesterol, HDL",[3],35.9 ± 1.8 mg/100 ml
same,"Total cholesterol, LDL + VLDL",[3],54.3 ± 5.8 mg/100 ml
same,"Total cholesterol, Serum",[3],90.2 ± 5.1 mg/100 ml
same,"Triglycerides, Serum",[3],125.8 ± 9.4 mg/100 ml
same,"Total cholesterol, HDL",[4],40.0 ± 1.9 mg/100 ml
same,"Total cholesterol, LDL + VLDL",[4],57.3 ± 4.3 mg/100 ml
same,"Total cholesterol, Serum",[4],97.9 ± 3.9 mg/100 ml
same,"Triglycerides, Serum",[4],127.3 ± 6.2 mg/100 ml
same,effect on serum total triglycerides (in words),rats with cholesterol loading,lowered serum total triglyceride levels at days 5 and 10
"O=C([O-])CCC(=O)N[C@@H](Cc1c[nH]cn1)C(=O)O.[Na+] [Compound V—1Na, N^α-succinyl-L-histidine Monosodium Salt]",effect on serum total triglycerides (in words),rats with cholesterol loading,ability thereof to lower serum total triglyceride levels
"O=C(O)CCC(=O)N[C@@H](Cc1c[nH]c2ccccc12)C(=O)[O-].[Na+] [II-1Na, N^+-succinyl-L-tryptophane Monosodium Salt]","Total cholesterol, HDL",[6],49.5 ± 3.8 mg/100 ml
same,"Total cholesterol, LDL + VLDL",[6],60.2 ± 10.6 mg/100 ml
same,"Triglycerides, HDL",[6],32.6 ± 2.5 mg/100 ml
same,"Triglycerides, LDL + VLDL",[6],48.2 ± 4.9 mg/100 ml
same,"Triglycerides, Serum",[6],80.9 ± 5.5 mg/100 ml
same,"Total cholesterol, Serum",[7],109.7 ± 9.4 mg/100 ml
same,"Total cholesterol, HDL",[8],52.9 ± 4.1 mg/100 ml
same,"Total cholesterol, LDL + VLDL",[8],87.9 ± 14.5 mg/100 ml
same,"Total cholesterol, Serum",[8],140.8 ± 13.6 mg/100 ml
same,"Triglycerides, HDL",[8],44.5 ± 2.5 mg/100 ml
same,"Triglycerides, LDL + VLDL",[8],73.9 ± 15.4 mg/100 ml
same,"Triglycerides, Serum",[8],111.6 ± 17.2 mg/100 ml
same,"Total cholesterol, HDL",[9],54.7 ± 2.2 mg/100 ml
same,"Total cholesterol, LDL + VLDL",[9],79.7 ± 12.6 mg/100 ml
same,"Total cholesterol, Serum",[9],134.4 ± 12.5 mg/100 ml
same,"Triglycerides, HDL",[9],38.9 ± 2.4 mg/100 ml
same,"Triglycerides, LDL + VLDL",[9],69.6 ± 11.1 mg/100 ml
same,"Triglycerides, Serum",[9],108.5 ± 11.3 mg/100 ml
"O=C([O-])CCCC(=O)N[C@@H](Cc1c[nH]c2ccccc12)C(=O)O.[Na+] [III-1Na, N^α-glutaryl-L-tryptophan Monosodium Salt]","Total cholesterol, HDL",[6],49.0 ± 2.1 mg/100 ml
same,"Total cholesterol, LDL + VLDL",[6],40.0 ± 5.4 mg/100 ml
same,"Triglycerides, HDL",[6],30.0 ± 2.2 mg/100 ml
same,"Triglycerides, LDL + VLDL",[6],57.4 ± 9.1 mg/100 ml
same,"Triglycerides, Serum",[6],87.4 ± 9.4 mg/100 ml
same,"Total cholesterol, Serum",[7],89.0 ± 5.0 mg/100 ml
same,"Total cholesterol, HDL",[8],48.4 ± 2.7 mg/100 ml
same,"Total cholesterol, LDL + VLDL",[8],60.4 ± 8.3 mg/100 ml
same,"Total cholesterol, Serum",[8],108.8 ± 8.2 mg/100 ml
same,"Triglycerides, HDL",[8],45.2 ± 3.2 mg/100 ml
same,"Triglycerides, LDL + VLDL",[8],79.2 ± 7.7 mg/100 ml
same,"Triglycerides, Serum",[8],124.4 ± 8.9 mg/100 ml
same,"Total cholesterol, HDL",[9],48.8 ± 2.4 mg/100 ml
same,"Total cholesterol, LDL + VLDL",[9],53.5 ± 7.3 mg/100 ml
same,"Total cholesterol, Serum",[9],102.3 ± 6.9 mg/100 ml
same,"Triglycerides, HDL",[9],34.3 ± 2.3 mg/100 ml
same,"Triglycerides, LDL + VLDL",[9],75.0 ± 8.5 mg/100 ml
same,"Triglycerides, Serum",[9],109.3 ± 10.5 mg/100 ml
same,effect on HDL cholesterol (in words),rats with cholesterol loading,did not change
same,effect on serum total triglycerides (in words),rats with cholesterol loading,did not change
same,lowered cholesterol of the VLDL+LDL fractions,[10],40%
same,lowered total cholesterol,[10],29%
"CC[C@H](C)C(=O)O[C@H]1C[C@@H](C)C=C2C=C[C@H](C)[C@H](CC[C@@H]3C[C@@H](O)CC(=O)O3)[C@H]21 [Lovastatine, reference compound]","Total cholesterol, CHDL",[11],50.6 ± 1.3 mg/100 ml
same,"Total cholesterol, CLLD + CLVLD",[11],49.9 ± 0.9 mg/100 ml
same,"Total cholesterol, Liver",[11],2.41 ± 0.17 mg/g of tissue
same,"Total cholesterol, Serum",[11],100.5 ± 6.7 mg/100 ml
same,"Triglycerids, Liver",[11],6.25 ± 0.13 mg/g of tissue
same,"Triglycerids, Serum",[11],93.6 ± 7.5 mg/100 ml
"CCC(C)(C)C(=O)O[C@H]1C[C@@H](C)C=C2C=C[C@H](C)[C@H](CC[C@@H]3C[C@@H](O)CC(=O)O3)[C@H]21 [Sim, Simvastatine, reference compound]","Total cholesterol, HDL",[1],27.8 ± 2.7 mg/100 ml
same,"Total cholesterol, LDL + VLDL",[1],43.0 ± 8.3 mg/100 ml
same,"Triglycerides, Serum",[1],108.9 ± 6.9 mg/100 ml
same,"Total cholesterol, Serum",[2],73.6 ± 7.3 mg/100 ml
same,"Total cholesterol, HDL",[3],33.2 ± 1.8 mg/100 ml
same,"Total cholesterol, LDL + VLDL",[3],66.9 ± 13.4 mg/100 ml
same,"Total cholesterol, Serum",[3],100.1 ± 12.8 mg/100 ml
same,"Triglycerides, Serum",[3],119.9 ± 10.5 mg/100 ml
same,"Total cholesterol, HDL",[4],32.7 ± 1.2 mg/100 ml
same,"Total cholesterol, LDL + VLDL",[4],61.2 ± 9.7 mg/100 ml
same,"Total cholesterol, Serum",[4],93.9 ± 10.2 mg/100 ml
same,"Triglycerides, Serum",[4],142.0 ± 5.4 mg/100 ml
same,effect on HDL cholesterol (in words),rats with cholesterol loading,did not effect
